From patent US11285227B2, “Trifunctional constructs with tunablepharmacokinetics useful in imaging and anti-tumor therapies” (CORNELL UNIVERSITY, priority 2017, dated 2022)
Read-outs that look alike come from different tables or passages of the source. Marks after values point to notes of the source that are not given here.

Legend:
[1] = test system: LNCaP xenograft tumor-bearing mice; experiment: Biodistribution studies of 177Lu-labeled ligands in LNCaP xenograft mice; format: in vivo; conditions: for Max. Tumor Uptake: corresponding 177Lu-labeled compound
Procedure: (§1) Inoculation of mice with xenografts: All animal studies were approved by the Institutional Animal Care and Use Committee of Weill Cornell Medicine and were undertaken in accordance with the guidelines set forth by the USPHS Policy on Humane Care and Use of Laboratory Animals. Animals were housed under standard conditions in approved facilities with 12 h light/dark cycles. Food and water was provided ad libitum throughout the course of the studies. Hairless male nu/nu mice were purchased from the Jackson Laboratory. For inoculation in mice, LNCaP cells were suspended at 4×10^7 cells/mL in a 1:1 mixture of PBS:Matrigel (BD Biosciences). Each mouse was injected in the left flank with 0.25 mL of the cell suspension. The mice were imaged when the tumors reached approximately 200-400 mm^3, while biodistributions were conducted when tumors were in the range 100-400 mm^3.
Biodistribution studies of ^177Lu-labeled ligands in LNCaP xenograft mice: LNCaP xenograft tumor-bearing mice (5 per time point per compound) were injected intravenously with a bolus injection of 348-851 kBq (9.4-23 μCi) and 37-50 ng (23-25 pmol) of each ligand. The mice were sacrificed at 4, 24 and 96 h post injection. A blood sample was removed, and a full biodistribution study was conducted on the following organs (with contents): heart, lungs, liver, small intestine, large intestine, stomach, spleen, pancreas, kidneys, muscle, bone and tumor. Tissues were weighed and counted on a 2470 Wizard^2 Automatic Gamma Counter (Perkin Elmer). Counts were corrected for decay and for activity injected, and tissue uptake was expressed as percent injected dose per gram (% ID/g). Standard error measurement was calculated for each data point.

[2] = molecular target: PSMA on LNCaP cells (Homo sapiens, UniProt Q04609); experiment: Multi-concentration competitive binding assay against 99mTc-MIP-1427 (Section 1.3); parameters: host or cells: LNCaP
Procedure: Cell Culture: The PSMA expressing human prostate cancer cell line, LNCaP, was obtained from the American Type Culture Collection. Cell culture supplies were obtained from Invitrogen unless otherwise noted. LNCaP cells were maintained in RPMI-1640 medium supplemented with 10% fetal bovine serum (Hyclone), 4 mM L-glutamine, 1 mM sodium pyruvate, 10 mM N-2-hydroxyethylpiperazine-N-2-ethanesulfonic acid (HEPES), 2.5 mg/mL D-glucose, and 50 μg/mL gentamicin in a humidified incubator at 37° C./5% CO2. Cells were removed from flasks for passage or for transfer to 12-well assay plates by incubating them with 0.25% trypsin/ethylenediaminetetraacetic acid (EDTA).
In vitro determination of IC50: IC50 values of the non-labeled, metal-free ligands were determined by screening in a multi-concentration competitive binding assay against ^99mTc-((7S,12S,16S)-1-(1-(carboxymethyl)-1H-imidazol-2-yl)-2-((1-(carboxymethyl)-1H-imidazol-2-yl)methyl)-9,14-dioxo-2,8,13,15-tetraazaoctadecane-7,12,16,18-tetracarboxylic acid technetium tricarbonyl complex) (^99mTc-MIP-1427) for binding to PSMA on LNCaP cells, according to previously described methods [18,19] with small modifications. Briefly, LNCaP cells were plated 48 h prior to the experiment to achieve a density of approximately 5×10^5 cells/well (in triplicate) in RPMI-1640 medium supplemented with 0.25% bovine serum albumin. The cells were incubated for 2 h with 1 nM ^99mTc-MIP-1427 in serum-free RPMI-1640 medium in the presence of 0.001-10,000 nM test compounds. Radioactive incubation media was then removed by pipette and the cells were washed twice using 1 mL ice-cold PBS 1× solution. Cells were harvested from the plates following treatment with 1 mL 1M NaOH and transferred to tubes for radioactive counting using a 2470 Wizard^2 Automatic Gamma Counter (Perkin Elmer). Standard solutions (10% of activity added to each well) were prepared to enable decay correction. IC50 values were determined by fitting the data points to a sigmoidal Hills1 curve in Origin software.

[3] = test system: LNCaP xenograft tumor-bearing mice; experiment: µPET/CT imaging of 66Ga-RPS ligands in LNCaP xenograft mice; format: in vivo
Procedure: as §1
Imaging of ^66Ga-RPS ligands in LNCaP xenograft mice: LNCaP xenograft tumor-bearing mice (2-3 per compound) injected intravenously with a bolus injection of 0.56-5.4 MBq (15-145 μCi) of the ^66Ga-labeled ligand. The specific activity of the tracers was in the range 14.8-47 MBq/pmol (0.4-1.27 mCi/pmol). The mice were imaged using μPET/CT (Inveon™; Siemens Medical Solutions, Inc.) at 1, 3, 6 and 24 h post-injection following inhalation anesthetization with isoflurane. Total acquisition time was 30 min for the 1 h, 3 h and 6 h images, and 60 min for 24 h time point. A CT scan was obtained immediately before the acquisition for both anatomical co-registration and attenuation correction. Images were reconstructed using the Inveon™ software supplied by the vendor. Image-derived tumor and kidney uptake was estimated by comparison to a 10% injected dose per cubic mm (% ID/mm^3) standard introduced into the imaging field of view. The standard was prepared by dilution of 10% of the injected activity to 1 mL with saline. Volumes of interest (VOIs) were drawn with the aid of the CT and confirmed by PET. The contents of the VOIs were integrated and the calculated counts were converted to % ID/mm^3 by direct comparison to the aforementioned standard following correction for activity injected.

[4] = test system: LNCaP xenograft tumor-bearing mice; experiment: Dosimetry (dose integrals from 177Lu biodistribution); format: in vivo
Procedure: Dosimetry: The dosimetry was calculated assuming a linear interpolation between the three time points. The average injected dose per organ was calculated by using the average of the activity and organ weights of the mice at that time point. Intermediate time points at every 4 hours were generated using the linear approximation and all time points were corrected for decay during the time interval between points. These curves were integrated using a trapezoidal approximation and the sum used to determine the residence time.

[5] = C57BL/6 mice, tail vein, 10-50 kBq; 15 min, 1 h, 5 h
Procedure: C57BL/6 mice were injected via tail vein with 10-50 kBq of each radiometal complex and were sacrificed after 15 min, 1 h, or 5 h.

[6] = non-labeled, metal-free ligands, competitive binding in LNCaP cells vs 1 nM 99mTc-MIP-1427, 2 h, read-out: IC50

Chain of PSMA on LNCaP cells (Q04609 whole entry): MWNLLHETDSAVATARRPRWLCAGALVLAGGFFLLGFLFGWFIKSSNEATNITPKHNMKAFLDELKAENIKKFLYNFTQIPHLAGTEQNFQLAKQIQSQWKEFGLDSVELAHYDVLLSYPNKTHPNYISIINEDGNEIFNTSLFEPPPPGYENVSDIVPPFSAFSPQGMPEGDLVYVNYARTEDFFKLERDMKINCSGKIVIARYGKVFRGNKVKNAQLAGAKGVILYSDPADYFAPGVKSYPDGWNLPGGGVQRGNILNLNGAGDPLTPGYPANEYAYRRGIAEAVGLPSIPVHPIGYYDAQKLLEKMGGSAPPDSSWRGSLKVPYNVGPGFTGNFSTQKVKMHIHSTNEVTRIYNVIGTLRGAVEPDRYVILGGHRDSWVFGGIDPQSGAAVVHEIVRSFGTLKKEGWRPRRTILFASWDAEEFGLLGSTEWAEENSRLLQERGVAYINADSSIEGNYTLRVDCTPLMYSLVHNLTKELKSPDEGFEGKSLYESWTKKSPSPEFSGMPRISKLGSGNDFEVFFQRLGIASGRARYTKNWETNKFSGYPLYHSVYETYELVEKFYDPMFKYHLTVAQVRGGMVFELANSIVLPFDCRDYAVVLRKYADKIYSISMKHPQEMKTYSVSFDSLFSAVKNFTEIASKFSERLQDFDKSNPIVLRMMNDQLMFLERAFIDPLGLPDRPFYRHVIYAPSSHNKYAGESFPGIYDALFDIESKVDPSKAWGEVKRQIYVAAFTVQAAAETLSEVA

Structure (SMILES): O=C(O)CC[C@H](NC(=O)N[C@@H](CCCCNC(=O)Nc1cccc(-c2cn(CCOCCOCCOCCC(=O)N[C@@H](CCCCNC(=S)Nc3ccc(CC4CN(CC(=O)O)CCN(CC(=O)O)CCN(CC(=O)O)CCN4CC(=O)O)cc3)C(=O)N[C@@H](CCCCNC(=O)Cc3ccc(I)cc3)C(=O)O)nn2)c1)C(=O)O)C(=O)O (stereo partly drawn) [RPS-063, (((1S)-1-carboxy-5-(3-(3-(1-((14S,17S)-17-carboxy-24-(4-iodophenyl)-12,15,23-trioxo-14-(4-(3-(4-((1,4,7,10-tetrakis(carboxymethyl)-1,4,7,10-tetraazacyclododecan-2-yl)methyl)phenyl)thioureido)butyl)-3,6,9-trioxa-13,16,22-triazatetracosyl)-1H-1,2,3-triazol-4-yl)phenyl)ureido)pentyl)carbamoyl)-L-glutamic acid]
- Max. Tumor Uptake ([1]; a = 4 h p.i.): 30.0 % ID/g
- IC50 [2]: 1.5 ± 0.3 nM

Structure (SMILES): O=C(O)CC[C@H](NC(=O)N[C@@H](CCCCNC(=O)Nc1cccc(-c2cn(CCOCCOCCOCCOCCOCCOCCOCCOCCC(=O)N[C@@H](CCCCNC(=S)Nc3ccc(CC4CN(CC(=O)O)CCN(CC(=O)O)CCN(CC(=O)O)CCN4CC(=O)O)cc3)C(=O)N[C@@H](CCCCNC(=O)Cc3ccc(I)cc3)C(=O)O)nn2)c1)C(=O)O)C(=O)O (stereo partly drawn) [RPS-066, (((1S)-1-carboxy-5-(3-(3-(1-((29S,32S)-32-carboxy-39-(4-iodophenyl)-27,30,38-trioxo-29-(4-(3-(4-((1,4,7,10-tetrakis(carboxymethyl)-1,4,7,10-tetraazacyclododecan-2-yl)methyl)phenyl)thioureido)butyl)-3,6,9,12,15,18,21,24-octaoxa-28,31,37-triazanonatriacontyl)-1H-1,2,3-triazol-4-yl)phenyl)ureido)pentyl)carbamoyl)-L-glutamic acid]
- Max. Tumor Uptake ([1]; a = 4 h p.i.): 18.7 % ID/g
- IC50 [2, 6]: 5.2 nM

Structure (SMILES): O=C(O)CC[C@H](NC(=O)N[C@@H](CCCCNC(=O)Nc1cccc(-c2cn(CCOCCOCCOCCOCCC(=O)N[C@@H](CCCCNC(=S)Nc3ccc(CC4CN(CC(=O)O)CCN(CC(=O)O)CCN(CC(=O)O)CCN4CC(=O)O)cc3)C(=O)N[C@@H](CCCCNC(=O)Cc3ccc(I)cc3)C(=O)O)nn2)c1)C(=O)O)C(=O)O (stereo partly drawn) [RPS-061, (((1S)-1-carboxy-5-(3-(3-(1-((17S,20S)-20-carboxy-27-(4-iodophenyl)-15,18,26-trioxo-17-(4-(3-(4-((1,4,7,10-tetrakis(carboxymethyl)-1,4,7,10-tetraazacyclododecan-2-yl)methyl)phenyl)thioureido)butyl)-3,6,9,12-tetraoxa-16,19,25-triazaheptacosyl)-1H-1,2,3-triazol-4-yl)phenyl)ureido)pentyl)carbamoyl)-L-glutamic acid]
- Max. Tumor Uptake ([1]; a = 4 h p.i.): 20.4 % ID/g
- IC50 [2, 6]: 4.1 nM

Structure (SMILES): O=C(O)CC[C@H](NC(=O)N[C@@H](CCCCNC(=O)Nc1cccc(-c2cn(CCOCCOCCOCCOCCOCCOCCC(=O)N[C@@H](CCCCNC(=S)Nc3ccc(CC4CN(CC(=O)O)CCN(CC(=O)O)CCN(CC(=O)O)CCN4CC(=O)O)cc3)C(=O)N[C@@H](CCCCNC(=O)Cc3ccc(I)cc3)C(=O)O)nn2)c1)C(=O)O)C(=O)O (stereo partly drawn) [RPS-069, (((1S)-1-carboxy-5-(3-(3-(1-((23S,26S)-26-carboxy-33-(4-iodophenyl)-21,24,32-trioxo-23-(4-(3-(4-((1,4,7,10-tetrakis(carboxymethyl)-1,4,7,10-tetraazacyclododecan-2-yl)methyl)phenyl)thioureido)butyl)-3,6,9,12,15,18-hexaoxa-22,25,31-triazatritriacontyl)-1H-1,2,3-triazol-4-yl)phenyl)ureido)pentyl)carbamoyl)-L-glutamic acid]
- Max. Tumor Uptake ([1]; a = 4 h p.i.): 17.0 % ID/g
- IC50 [2, 6]: 3.8 nM

Structure (SMILES): O=C(O)CCC(NC(=O)NC(CCCCNC(=O)C(Cc1ccc2ccccc2c1)NC(=O)C1CCC(CNC(=O)CN2CCN(CC(=O)O)CCN(CC(=O)O)CCN(CC(=O)O)CC2)CC1)C(=O)O)C(=O)O (stereo not shown) [^66Ga-PSMA-617, metal not drawn, reference compound]
- Tumor uptake (image-derived) ([3]; 24 h post injection): 1.1±0.4 % ID/cm^3
- Maximum tumor uptake (image-derived) ([3]; maximum at 1 h post injection): 3.1±0.4 % ID/cm^3

Structure (SMILES): O=C(O)CCC(NC(=O)NC(CCCCNC(=O)Nc1cccc(-c2cnnn2CC(=O)NC(CCCCNC(=S)Nc2ccc(CC3CN(CC(=O)O)CCN(CC(=O)O)CCN(CC(=O)O)CCN3CC(=O)O)cc2)C(=O)NC(CCCCNC(=O)Cc2ccc(I)cc2)C(=O)O)c1)C(=O)O)C(=O)O (stereo not shown) [^177Lu-RPS-068, metal not drawn]
- Tumor uptake (in words) ([1]; 4-96 h p.i.): high and remained high
- Blood activity (in words) ([1]; 4 h p.i.): highest blood activity
- Tumor uptake ([1]; 4 h p.i.): 21.8±2.8 % ID/g
- Kidney uptake ([1]; 24 h p.i.): 87.3±6.7 % ID/g
- Tumor uptake ([1]; 96 h p.i.): 14.9±1.5 % ID/g
- Tumor-to-kidney ratio ([1]; 96 h p.i.): 1.56±0.23
- Dose integral in the tumor relative to 177Lu-PSMA-617 ([4]; over 96 h): nearly four times higher

Structure (SMILES): O=C(O)CCC(NC(=O)NC(CCCCNC(=O)C(Cc1ccc2ccccc2c1)NC(=O)C1CCC(CNC(=O)CN2CCN(CC(=O)O)CCN(CC(=O)O)CCN(CC(=O)O)CC2)CC1)C(=O)O)C(=O)O (stereo not shown) [PSMA-617, reference compound]
- Max. Tumor Uptake ([1]; a = 4 h p.i.): 14.4 ± 2.5 % ID/g
- IC50 [2, 6]: 6.6 ± 0.7 nM

Structure (SMILES): O=C(O)CCC(NC(=O)NC(CCCCNC(=O)C(Cc1ccc2ccccc2c1)NC(=O)C1CCC(CNC(=O)CN2CCN(CC(=O)O)CCN(CC(=O)O)CCN(CC(=O)O)CC2)CC1)C(=O)O)C(=O)O (stereo not shown) [^177Lu-PSMA-617, metal not drawn, reference compound]
- Kidney uptake ([1]; 4 h p.i.): 14.1±3.1 % ID/g
- Tumor uptake ([1]; 4 h p.i.): 14.4±1.1 % ID/g
- Tumor uptake ([1]; 96 h p.i.): 3.5±0.3 % ID/g
- Tumor-to-kidney ratio ([1]; 96 h p.i.): 14.39±2.2
- Ratio of tumor dose integral to kidney dose integral ([4]; over the 96 h): 1.95

Structure (SMILES): O=C([O-])CN1CCN(CC(=O)[O-])CCN(CC(=O)[O-])CCN(CC(=O)[O-])CC1.[225Ac+3] [[^225Ac(DOTA)]^−, reference compound]
- Biodistribution profile (clearance) [5]: appeared to clear more rapidly through the urine

Structure (SMILES): O=C([O-])c1cccc(CN2CCOCCOCCN(Cc3cccc(C(=O)[O-])n3)CCOCCOCC2)n1.[225Ac+3] [[^225Ac(macropa)]^+]
- Biodistribution profile (clearance) [5]: rapidly cleared from mice, with very little activity measured in blood by 1 h post injection
- Organ accumulation / in vivo stability of the complex [5]: did not accumulate in any organ

Structure (SMILES): O=C(O)CCC(NC(=O)NC(CCCCNC(=O)Nc1cccc(-c2cnnn2CC(=O)NC(CCCCNC(=S)Nc2ccc(CC3CN(CC(=O)O)CCN(CC(=O)O)CCN(CC(=O)O)CCN3CC(=O)O)cc2)C(=O)NC(CCCCNC(=O)Cc2ccc(I)cc2)C(=O)O)c1)C(=O)O)C(=O)O (stereo not shown) [^66Ga-RPS-068, metal not drawn]
- Kidney uptake (image-derived) ([3]; 24 h post injection): 1.9±0.3 % ID/cm^3
- Maximum tumor uptake (image-derived) ([3]; maximum at 3 h post injection): 9.7±2.0 % ID/cm^3

Structure (SMILES): O=C(O)CC[C@H](NC(=O)N[C@@H](CCCCNC(=O)Nc1cccc(-c2cnnn2CC(=O)N[C@@H](CCCCNC(=S)Nc2ccc(CC3CN(CC(=O)O)CCN(CC(=O)O)CCN(CC(=O)O)CCN3CC(=O)O)cc2)C(=O)N[C@@H](CCCCNC(=O)Cc2ccc(I)cc2)C(=O)O)c1)C(=O)O)C(=O)O (stereo partly drawn) [RPS-068, (((1S)-1-carboxy-5-(3-(3-(1-(2-(((2S)-1-(((S)-1-carboxy-5-(2-(4-iodophenyl)acetamido)pentyl)amino)-1-oxo-6-(3-(4-((1,4,7,10-tetrakis(carboxymethyl)-1,4,7,10-tetraazacyclododecan-2-yl)methyl)phenyl)thioureido)hexan-2-yl)amino)-2-oxoethyl)-1H-1,2,3-triazol-5-yl)phenyl)ureido)pentyl)carbamoyl)-L-glutamic acid]
- Max. Tumor Uptake ([1]; b = 24 h p.i.): 26.9 ± 2.0^b % ID/g
- IC50 [2, 6]: 2.1 ± 0.1 nM
